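Cells were grown in 96-well plates and exposed to each compound for 48 hours at five concentrations; endpoints were interpolated linearly between bracketing concentrations, or set to the highest concentration if not reached. GI50: concentration for 50% inhibition of growth. At the TGI there is no net growth.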
Assays:
Assay in all cases: NCI-60 cell line screen, 48 h
HT29 colon = test system: HT29 colon
MALME-3M melanoma = test system: MALME-3M melanoma
ACHN renal = test system: ACHN renal
OVCAR-4 ovarian = test system: OVCAR-4 ovarian
SNB-19 CNS = test system: SNB-19 CNS
786-0 renal = test system: 786-0 renal
NCI/ADR-RES ovarian = test system: NCI/ADR-RES ovarian
SN12C renal = test system: SN12C renal
RXF 393 renal = test system: RXF 393 renal
A498 renal = test system: A498 renal
DU-145 prostate = test system: DU-145 prostate
SF-295 CNS = test system: SF-295 CNS
OVCAR-5 ovarian = test system: OVCAR-5 ovarian
K-562 leukemia = test system: K-562 leukemia
NCI-H522 lung = test system: NCI-H522 lung
NCI-H460 lung = test system: NCI-H460 lung
EKVX NSCLC = test system: EKVX NSCLC
IGROV1 ovarian = test system: IGROV1 ovarian
MDA-MB-231 breast = test system: MDA-MB-231 breast
UACC-257 melanoma = test system: UACC-257 melanoma
COLO 205 colon = test system: COLO 205 colon
OVCAR-3 ovarian = test system: OVCAR-3 ovarian
SF-539 CNS = test system: SF-539 CNS
NCI-H226 lung = test system: NCI-H226 lung
NCI-H23 lung = test system: NCI-H23 lung
HOP-62 NSCLC = test system: HOP-62 NSCLC
SF-268 CNS = test system: SF-268 CNS
HCT-116 colon = test system: HCT-116 colon
MDA-MB-435 = test system: MDA-MB-435
MOLT-4 leukemia = test system: MOLT-4 leukemia
HCC-2998 colon = test system: HCC-2998 colon
T-47D breast = test system: T-47D breast
SK-MEL-28 melanoma = test system: SK-MEL-28 melanoma
SK-MEL-2 melanoma = test system: SK-MEL-2 melanoma
SK-OV-3 ovarian = test system: SK-OV-3 ovarian
MCF7 breast = test system: MCF7 breast
HL-60(TB) leukemia = test system: HL-60(TB) leukemia
SW-620 colon = test system: SW-620 colon
A549 NSCLC = test system: A549 NSCLC
CAKI-1 renal = test system: CAKI-1 renal
KM12 colon = test system: KM12 colon
LOX IMVI melanoma = test system: LOX IMVI melanoma
HCT-15 colon = test system: HCT-15 colon
TK-10 renal = test system: TK-10 renal
BT-549 breast = test system: BT-549 breast
SK-MEL-5 melanoma = test system: SK-MEL-5 melanoma
UO-31 renal = test system: UO-31 renal
UACC-62 melanoma = test system: UACC-62 melanoma
CCRF-CEM leukemia = test system: CCRF-CEM leukemia
SNB-75 CNS = test system: SNB-75 CNS
HS 578T breast = test system: HS 578T breast
M14 melanoma = test system: M14 melanoma
OVCAR-8 ovarian = test system: OVCAR-8 ovarian
RPMI-8226 leukemia = test system: RPMI-8226 leukemia
U251 CNS = test system: U251 CNS
PC-3 prostate = test system: PC-3 prostate
HOP-92 NSCLC = test system: HOP-92 NSCLC
SR leukemia = test system: SR leukemia

## CN1CCN(CC(=O)N2c3cccc4cccc(c34)N(C(=O)CN3CCN(C)CC3)C2c2cn(-c3ccccc3)nc2-c2cccc([N+](=O)[O-])c2)CC1
HT29 colon
  GI50: 2.19 µM
  TGI: 5.59 µM
MALME-3M melanoma
  GI50: 1.85 µM
  TGI: 3.49 µM
ACHN renal
  GI50: 2.22 µM
  TGI: 5.33 µM
OVCAR-4 ovarian
  GI50: 2.25 µM
  TGI: 5.24 µM
SNB-19 CNS
  GI50: 2.96 µM
  TGI: 11.3 µM
786-0 renal
  GI50: 1.76 µM
  TGI: 3.21 µM
NCI/ADR-RES ovarian
  GI50: 3.68 µM
  TGI: 14.3 µM
SN12C renal
  GI50: 1.99 µM
  TGI: 4.28 µM
RXF 393 renal
  GI50: 1.58 µM
  TGI: 3.09 µM
A498 renal
  GI50: 1.92 µM
  TGI: 3.95 µM
DU-145 prostate
  GI50: 3.27 µM
  TGI: 10.4 µM
SF-295 CNS
  GI50: 1.9 µM
  TGI: 3.73 µM
OVCAR-5 ovarian
  GI50: 2.46 µM
  TGI: 7.53 µM
K-562 leukemia
  GI50: 1.22 µM
  TGI: 3.81 µM
NCI-H522 lung
  GI50: 1.92 µM
  TGI: 4.13 µM
NCI-H460 lung
  GI50: 2.23 µM
  TGI: 4.98 µM
EKVX NSCLC
  GI50: 2.84 µM
  TGI: 11.5 µM
IGROV1 ovarian
  GI50: 1.73 µM
  TGI: 3.71 µM
MDA-MB-231 breast
  GI50: 1.84 µM
  TGI: 3.68 µM
UACC-257 melanoma
  GI50: 1.86 µM
  TGI: 3.69 µM
COLO 205 colon
  GI50: 1.84 µM
  TGI: 3.82 µM
OVCAR-3 ovarian
  GI50: 1.76 µM
  TGI: 3.4 µM
SF-539 CNS
  GI50: 1.69 µM
  TGI: 3.19 µM
NCI-H226 lung
  GI50: 1.83 µM
  TGI: 4.8 µM
NCI-H23 lung
  GI50: 2.13 µM
  TGI: 5.45 µM
HOP-62 NSCLC
  GI50: 2.02 µM
  TGI: 5.52 µM
SF-268 CNS
  GI50: 1.95 µM
  TGI: 4.95 µM
HCT-116 colon
  GI50: 1.65 µM
  TGI: 3.1 µM
MDA-MB-435
  GI50: 1.98 µM
  TGI: 3.93 µM
MOLT-4 leukemia
  GI50: 2.21 µM
  TGI: 5.94 µM
HCC-2998 colon
  GI50: 1.54 µM
  TGI: 3.01 µM
T-47D breast
  GI50: 1.97 µM
  TGI: 4.34 µM
SK-MEL-28 melanoma
  GI50: 1.81 µM
  TGI: 3.36 µM
SK-MEL-2 melanoma
  GI50: 1.95 µM
  TGI: 4.04 µM
SK-OV-3 ovarian
  GI50: 2.11 µM
  TGI: 4.6 µM
MCF7 breast
  GI50: 1.75 µM
  TGI: 3.39 µM
HL-60(TB) leukemia
  GI50: 1.89 µM
  TGI: 3.75 µM
SW-620 colon
  GI50: 1.91 µM
  TGI: 4.37 µM
A549 NSCLC
  GI50: 3.21 µM
  TGI: 13.2 µM
CAKI-1 renal
  GI50: 1.83 µM
  TGI: 4.1 µM
KM12 colon
  GI50: 1.85 µM
  TGI: 3.43 µM
LOX IMVI melanoma
  GI50: 1.74 µM
  TGI: 3.22 µM
HCT-15 colon
  GI50: 1.98 µM
  TGI: 4.06 µM
TK-10 renal
  GI50: 2.42 µM
  TGI: 5.61 µM
BT-549 breast
  GI50: 1.67 µM
  TGI: 3.26 µM
SK-MEL-5 melanoma
  GI50: 1.7 µM
  TGI: 3.11 µM
UO-31 renal
  GI50: 1.32 µM
  TGI: 2.75 µM
UACC-62 melanoma
  GI50: 1.77 µM
  TGI: 3.38 µM
CCRF-CEM leukemia
  GI50: 1.69 µM
  TGI: 4.45 µM
SNB-75 CNS
  GI50: 1.32 µM
  TGI: 2.71 µM
HS 578T breast
  GI50: 1.95 µM
  TGI: 5.71 µM
M14 melanoma
  GI50: 1.75 µM
  TGI: 3.34 µM
OVCAR-8 ovarian
  GI50: 2.35 µM
  TGI: 5.79 µM
RPMI-8226 leukemia
  GI50: 1.76 µM
  TGI: 4.33 µM
U251 CNS
  GI50: 1.9 µM
  TGI: 4 µM
PC-3 prostate
  GI50: 2.8 µM
  TGI: 10.4 µM
HOP-92 NSCLC
  GI50: 1.13 µM
  TGI: 3.18 µM

## COCN1C(=O)[C@@H]2CCCN2C(=O)c2ccc([N+](=O)[O-])cc21
HT29 colon
  TGI: > 100 µM
ACHN renal
  TGI: > 100 µM
OVCAR-4 ovarian
  TGI: > 100 µM
SNB-19 CNS
  TGI: > 100 µM
786-0 renal
  TGI: > 100 µM
NCI/ADR-RES ovarian
  TGI: > 100 µM
SN12C renal
  TGI: > 100 µM
RXF 393 renal
  TGI: > 100 µM
A498 renal
  TGI: > 100 µM
DU-145 prostate
  TGI: > 100 µM
SF-295 CNS
  TGI: > 100 µM
OVCAR-5 ovarian
  TGI: > 100 µM
SR leukemia
  TGI: > 100 µM
K-562 leukemia
  TGI: > 100 µM
NCI-H522 lung
  TGI: > 100 µM
NCI-H460 lung
  TGI: > 100 µM
EKVX NSCLC
  TGI: > 100 µM
IGROV1 ovarian
  TGI: > 100 µM
MDA-MB-231 breast
  TGI: > 100 µM
UACC-257 melanoma
  TGI: > 100 µM
COLO 205 colon
  TGI: > 100 µM
OVCAR-3 ovarian
  TGI: > 100 µM
SF-539 CNS
  TGI: > 100 µM
NCI-H226 lung
  TGI: > 100 µM
NCI-H23 lung
  TGI: > 100 µM
HOP-62 NSCLC
  TGI: > 100 µM
SF-268 CNS
  TGI: > 100 µM
HCT-116 colon
  TGI: > 100 µM
MDA-MB-435
  TGI: > 100 µM
MOLT-4 leukemia
  TGI: > 100 µM
HCC-2998 colon
  TGI: > 100 µM
T-47D breast
  TGI: > 100 µM
SK-MEL-28 melanoma
  TGI: > 100 µM
SK-MEL-2 melanoma
  TGI: > 100 µM
SK-OV-3 ovarian
  TGI: > 100 µM
MCF7 breast
  TGI: > 100 µM
HL-60(TB) leukemia
  TGI: > 100 µM
SW-620 colon
  TGI: > 100 µM
A549 NSCLC
  TGI: > 100 µM
CAKI-1 renal
  TGI: > 100 µM
KM12 colon
  TGI: > 100 µM
LOX IMVI melanoma
  TGI: > 100 µM
HCT-15 colon
  TGI: > 100 µM
TK-10 renal
  TGI: > 100 µM
BT-549 breast
  TGI: > 100 µM
SK-MEL-5 melanoma
  TGI: > 100 µM
UO-31 renal
  TGI: > 100 µM
UACC-62 melanoma
  TGI: > 100 µM
CCRF-CEM leukemia
  TGI: > 100 µM
SNB-75 CNS
  TGI: > 100 µM
HS 578T breast
  TGI: > 100 µM
M14 melanoma
  TGI: > 100 µM
OVCAR-8 ovarian
  TGI: > 100 µM
RPMI-8226 leukemia
  TGI: > 100 µM
U251 CNS
  TGI: > 100 µM
PC-3 prostate
  TGI: > 100 µM
HOP-92 NSCLC
  TGI: > 100 µM

From PubChem BioAssay (NCI)
